One data set concerns male albino mice. Kind of data set: Allyl alcohol-induced liver injury in mice (SGPT). In kind it is in vivo. Particulars: allyl alcohol alone, 50 mg/kg single intraperitoneal dose, 4 hours. The procedure: Influence of vitamin E phosphate/phosphatidylcholine liposomes (see example 1) on Allyl alcohol-induced liver injury was evaluated in male albino mice.
Data set [1] deals with Liver cells. Kind of data set: Phosphatidylcholine formation in liver cells dysfunctional due to ethanol exposure. The format is cell-based. Particulars: cells exposed to ethanol. The procedure:
Liver cells which had become dysfunctional due to exposure to ethanol were incubated 24 hours with vitamin E phosphate/phosphatidylcholine liposomes. The pmoles of phosphatidylcholine formed per minute/mg protein was then measured with the following results: […]

The test system of the next data set is cultured liver cells. Kind of data set: Reversal of ethanol damage in cultured liver cells (phosphatidylcholine biosynthesis). The format is cell-based. Particulars: 96 h. The procedure:
The use of vitamin E phosphate/phosphatidylcholine to effect reversal of damage from ethanol on liver cells was then studied. The cultured liver cells were incubated with 25 mM or 50 mM ethanol for 96 hours, at which time there is significant reduction in liver cell function (phosphatidylcholine biosynthesis). The effect of adding vitamin E phosphate/phosphatdylcholine after 72 hours was studied, and 24 hours later (96 hours after initial exposure to ethanol) values were obtained.

The subject of data set [2] is Liver cells. Kind of data set: Incorporation of labeled choline into phosphatidylcholine (PC biosynthesis) by liver cells with iron. The format is cell-based. From the text:
The study of effects on liver cells was also considered based on evaluation of effect on increase in the incorporation of labeled choline into phosphatidylcholine (phosphatidylcholine biosynthesis) by liver cells. Vitamin E phosphate/phosphatidylcholine produced greater beneficial effects than either vitamin E phosphate or phosphatidylcholine. [table]

Data set [3] in a line: Precipitation in the presence of divalent metal salts. In kind it is physicochemical. The text has this: Liposomes were made using salts of the vitamin E phosphate and phosphatidylcholine. These salts were protected by liposomes to avoid precipitation in the presence of 2^+ metal ions.
Data set [4] relates to isolated liver cells (1000×g cell fraction). The format is cell-based. Particulars: phosphatidylcholine 100 μM, vitamin E phosphate 50 μm; for LCLP % control + SEM: in presence of 1 mM iron.
[5] abbreviates: in presence of 1 mM iron, phosphatidylcholine 100 μM, vitamin E phosphate 50 μm.

As to `C=CCO` [Allyl alcohol], the “SGPT % of control ± SEM” value in the data set on male albino mice was 330 ± 15 % of control.

For the molecule `CCO` [ETOH, ethanol], the “pmoles of phosphatidylcholine formed per minute/mg protein” value is 25 pmoles per minute/mg protein with Liver cells [1] and 27 pmoles per minute/mg protein in the data set on Liver cells [1] (then incubated 24 hours in water). Also, the “phosphatidylcholine biosynthesis % control ± SEM” value with cultured liver cells (25 mM ethanol alone) is reported as 38 ± 2 % control; in the data set with cultured liver cells (50 mM ethanol alone), 22 ± 1 % control.

`Cc1c(C)c2c(c(C)c1OP(=O)(O)O)CCC(C)(CCCC(C)CCCC(C)CCCC(C)C)O2` (stereo not shown) [VEP, vitamin E phosphate]: the “PC biosynthesis % control + SEM” value with Liver cells [2] (setting [5]) amounted to 145 ± 4 % control. Moreover, the “behaviour in the presence of divalent metal salts” value in data set [3] is listed as “precipitated”. Moreover, in data set [4], the “LCLP % control + SEM” value is recorded as 167 ± 3 % control and the “iron-dependent lipid peroxidation in isolated liver cells (result in words)” value was “significantly reduced”.

Regarding `[Fe]` [iron], the “PC biosynthesis % control + SEM” value in the data set with Liver cells [2] (1 mM iron alone) was determined as 254 ± 9 % control.

Turning to phosphatidylcholine [PC], the “PC biosynthesis % control + SEM” value with Liver cells [2] (setting [5]) stood at 167 ± 4 % control. Also, in data set [4], the “LCLP % control + SEM” value stood at 281 ± 4 % control and the “iron-dependent lipid peroxidation in isolated liver cells (result in words)” value is “significantly reduced”.

(Values after patent US20050181021A1, “Vitamin E phosphate/phosphatidycholine liposomes to protect from or ameliorate cell damage” (priority 1992, published 2005).)
